# Reference: patent US20190021380A1 (priority 2014, published 2019)
# Where a name gives a salt, the structure may show the parent alone. Read-outs that look alike come from different tables or passages of the source.
# Tests used:
# T1R1/T1R3 receptor = T1R1/T1R3 receptor (Felis catus, UniProt E3UMS2); format: cell-based; settings: for EC50 +buffer (alone): compound alone in buffer; for Activity: overall call for modulation of T1R1/T1R3: active or N/A (= Not active)
# Source text: (§1) HEK293 cells that stably express T1R3 and inducibly express T1R1 were exposed to transmembrane compounds alone or in combination with one or more amino acids and/or one or more nucleotides to activate the umami receptor. Activation of the T1R1/T1R3 receptor was detected by a change in intracellular calcium levels using a calcium sensitive fluorescent dye. Cells that express T1R3 but not T1R1 were used as a control. A FLIPR® Tetra or a FlexStation® 3 was used for data capture.
# In each experiment, serial dilutions of up to 10 mM of the transmembrane compound were added to the T1R1/T1R3-expressing cells.
# cat T1R1/T1R3 receptor = cat T1R1/T1R3 receptor (Felis catus, UniProt E3UMS2); assay: cell-based; settings: for Max resp % of IMP / Max. resp. % of IMP: hek293 cells; for function as activators of T1R1/T1R3: in the presence of alanine, in words
# Source text: as §1, with “nucleotide derivatives” for “transmembrane compounds”, “dye and/or a luminescent reporter system.” for “dye.”
# [1] = threshold in the presence of 0.2 mM IMP, CNBD = Could not be determined
# [2] = in the presence of 0.2 mM IMP, CNBD = Could not be determined
# [3] = in the presence of 20 mM alanine, read-out: EC50-with Ala
structure (smiles),measurement,setting,value
"CCCCc1nn(CC(=O)N2CCCC2)c(=O)n1Cc1ccccc1 [4-benzyl-3-butyl-1-(2-oxo-2-(pyrrolidin-1-yl)ethyl)-1H-1,2,4-triazol-5(4H)-one]",Thres +IMP (0.2 mM),T1R1/T1R3 receptor; [1],0.1 mM
"N[C@@H](Cc1c[nH]cn1)C(=O)O [L-Histidine, L-histidine]",Thres +IMP (0.2 mM),T1R1/T1R3 receptor; [1],10.0 mM
"O=C(NCCCCNC(=O)c1cccnc1)c1cccnc1 [N,N′-(butane-1,4-diyl)dinicotinamide]",EC50 +Alanine (20 mM),T1R1/T1R3 receptor,CNBD
same,EC50 +buffer (alone),T1R1/T1R3 receptor; CNBD = Could not be determined,CNBD
same,Thres +IMP (0.2 mM),T1R1/T1R3 receptor; [1],0.1 mM
O=C(NCCc1ccccc1)c1cccnc1 [N-phenethylnicotinamide],Thres +IMP (0.2 mM),T1R1/T1R3 receptor; [1],0.03 mM
"N[C@@H](Cc1ccccc1)C(=O)O [L-Phenylalanine, reference compound]",Max resp ΔF/F +IMP (0.2 mM),T1R1/T1R3 receptor; [2],0.5900 ΔF/F
same,Thres +IMP (0.2 mM),T1R1/T1R3 receptor; [1],0.1 mM
"O=C(NCCc1ccccc1)c1ccc2c(c1)OCO2 [N-phenethylbenzo[d][1,3]dioxole-5-carboxamide]",EC50 +Alanine (20 mM),T1R1/T1R3 receptor,CNBD
same,Thres +IMP (0.2 mM),T1R1/T1R3 receptor; [1],0.01 mM
"C[C@H](N)C(=O)O [L-Alanine, reference compound]",Thres +IMP (0.2 mM),T1R1/T1R3 receptor; [1],3.0 mM
"N[C@@H](Cc1c[nH]c2ccccc12)C(=O)O [L-Tryptophan, tryptophan]",Thres +IMP (0.2 mM),T1R1/T1R3 receptor; [1],0.1 mM
"C=C[C@H]1C[N@@]2CC[C@H]1C[C@H]2[C@H](O)c1ccnc2ccc(OC)cc12 [Quinine HCL, reference compound]",EC50 +buffer (alone),T1R1/T1R3 receptor; CNBD = Could not be determined,CNBD
"CCOC(=O)NC(=O)C(c1ccccc1)c1ccccc1 [Ro 01-6128, reference compound]",Thres +Alanine (20 mM),T1R1/T1R3 receptor,0.3 mM
same,Activity,T1R1/T1R3 receptor,active
same,Thres +IMP (0.2 mM),T1R1/T1R3 receptor; [1],0.01 mM
"O=C(NCCc1c[nH]c2ccccc12)c1cccnc1 [N-(2-(1H-indol-3-yl)ethyl)nicotinamide, N-(2-(1H-Indol-3-yl)ethyl)nicotinamide]",Thres +IMP (0.2 mM),T1R1/T1R3 receptor; [1],0.003 mM
"O=C(O)[C@@H]1CCCN1 [L-Proline, proline]",EC50 +IMP (0.2 mM),T1R1/T1R3 receptor,CNBD
same,Max resp % of Ala +IMP (0.2 mM),T1R1/T1R3 receptor,CNBD
same,Max resp ΔF/F +IMP (0.2 mM),T1R1/T1R3 receptor,CNBD
same,Thres +IMP (0.2 mM),T1R1/T1R3 receptor,CNBD
"N[C@@H](CO)C(=O)O [L-Serine, serine]",Thres +IMP (0.2 mM),T1R1/T1R3 receptor; [1],3.0 mM
"N[C@@H](CS)C(=O)O [L-Cysteine, cysteine]",Max resp ΔF/F +IMP (0.2 mM),T1R1/T1R3 receptor; [2],0.5800 ΔF/F
same,Thres +IMP (0.2 mM),T1R1/T1R3 receptor; [1],10.0 mM
O=C(NCCc1ccccc1)c1ccccc1 [N-phenethylbenzamide],Max resp ΔF/F +IMP (0.2 mM),T1R1/T1R3 receptor; [2],0.9800 ΔF/F
same,Thres +IMP (0.2 mM),T1R1/T1R3 receptor; [1],0.01 mM
Nc1nc2c(ncn2[C@@H]2O[C@H](COP(=O)(O)OP(=O)(O)O)[C@@H](O)[C@H]2O)c(=S)[nH]1 [6-Thioguanosine-5′-O-diphosphate],EC50 +buffer (alone),T1R1/T1R3 receptor; CNBD = Could not be determined,CNBD
same,EC50 +IMP (0.2 mM),T1R1/T1R3 receptor; [2],CNBD
same,Max resp ΔF/F +IMP (0.2 mM),T1R1/T1R3 receptor; [2],0.0720 ΔF/F
same,Thres +IMP (0.2 mM),T1R1/T1R3 receptor; [1],CNBD
CC(=O)Nc1ccc(C(=O)Nc2cc(-c3ccccc3)nn2CCO)cc1 [4-acetamido-N-(1-(2-hydroxyethyl)-3-phenyl-1H-pyrazol-5-yl)benzamide],EC50 +Alanine (20 mM),T1R1/T1R3 receptor,CNBD
same,Thres +Alanine (20 mM),T1R1/T1R3 receptor,CNBD
same,EC50 +buffer (alone),T1R1/T1R3 receptor; CNBD = Could not be determined,CNBD
same,Thres +IMP (0.2 mM),T1R1/T1R3 receptor; [1],CNBD
Nc1ccccc1C(=O)NCCc1ccccc1 [2-amino-N-phenethylbenzamide],Thres +IMP (0.2 mM),T1R1/T1R3 receptor; [1],0.01 mM
"O=C(O)C1CCCCC1C(=O)Nc1cc(Cl)cc(Cl)c1 (centres unmarked) [2-((3,5-dichlorophenyl)carbamoyl)cyclohexanecarboxylic acid]",Thres +IMP (0.2 mM),T1R1/T1R3 receptor; [1],0.03 mM
"N[C@@H](Cc1ccc(O)cc1)C(=O)O [L-Tyrosine, tyrosine]",Thres +IMP (0.2 mM),T1R1/T1R3 receptor; [1],3.0 mM
O=P(O)(O)OP(=O)(O)OP(=O)(O)OC[C@H]1O[C@@H](n2cnc3c(Cl)ncnc32)[C@H](O)[C@@H]1O [6-Chloropurine riboside-5′-O-triphosphate],Thres +Alanine (20 mM),T1R1/T1R3 receptor,0.01 mM
same,Activity,T1R1/T1R3 receptor,active
same,Thres +IMP (0.2 mM),T1R1/T1R3 receptor; [1],0.003 mM
"Nc1ncnc2c1ncn2[C@@H]1O[C@H](COP(=O)(O)O)[C@@H](O)[C@H]1O [adenosine monophosphate (AMP), adenosine monophosphate, reference compound]",EC50,cat T1R1/T1R3 receptor; EC50-with Ala (mM),0.011 mM
Nc1ncnc2c1ncn2C1OC(COP(O)(O)=S)C(O)C1O (centres unmarked),Activity,cat T1R1/T1R3 receptor,active
same,Thres,cat T1R1/T1R3 receptor,0.003 mM
same,Max resp % of IMP,cat T1R1/T1R3 receptor,128.4 % of IMP
Nc1ncnc2c1ccn2[C@H]1O[C@@H](COP(=O)(O)O)[C@H](O)[C@@H]1O (stereo in doubt) [7-Deazaadenosine-5′-O-monophosphate],Thres,cat T1R1/T1R3 receptor,0.188 mM
"O=c1ccn([C@H]2O[C@@H](COP(=O)(O)O)[C@H](O)[C@@H]2O)c(=O)[nH]1 (stereo in doubt) [Uridine 5′-monophosphate disodium salt, reference compound]",Thres,cat T1R1/T1R3 receptor,3.000 mM
"O=C[C@H](O)[C@@H](O)[C@H](O)[C@H](O)CO [D-Glucose, reference compound]",EC50 +buffer (alone),T1R1/T1R3 receptor; CNBD = Could not be determined,CNBD
O=P(O)(O)OCC1OC(n2cnc3c(Cl)ncnc32)C(O)C1O (centres unmarked) [6-chloropurineriboside-5′-O-monophosphate],function as activators of T1R1/T1R3,cat T1R1/T1R3 receptor,activators of the T1R1/T1R3 receptor
"Nc1ncnc2c1ncn2C1OC(COP(=O)(O)O)C(OP(=O)(O)O)C1O (centres unmarked) [Adenosine 3′,5′-diphosphate sodium salt, adenosine 3′,5′-diphosphate]",Thres,cat T1R1/T1R3 receptor,0.00025 mM
"O=P(O)(O)OC[C@H]1O[C@@H](n2cnc3c2ncn2ccnc32)C[C@@H]1O [2′-Deoxy-1,N6-ethenoadenosine-5′-O-monophosphate]",Thres,cat T1R1/T1R3 receptor,0.05 mM
same,EC50,cat T1R1/T1R3 receptor; [3],0.2 mM
CC(=O)Nc1nc2c(ncn2[C@@H]2O[C@H](COP(=O)(O)O)[C@@H](O)[C@H]2O)c(=O)[nH]1 [N-Acetyl-5′-GMP],Thres,cat T1R1/T1R3 receptor,0.025 mM
Nc1nc2c(nc(Br)n2[C@@H]2O[C@H](COP(=O)(O)O)[C@@H](O)[C@H]2O)c(=O)[nH]1 [8-Bromoguanosine-5′-O-monophosphate],Thres,cat T1R1/T1R3 receptor,1 mM
CNc1ccccc1C(=O)O[C@H]1C[C@H](n2cnc3c(N)ncnc32)O[C@@H]1COP(=O)(O)O [2′-Deoxy-3′-O-(N′-methylanthraniloyl)adenosine-5′-O-monophosphate],Thres,cat T1R1/T1R3 receptor,0.0025 mM
same,EC50,cat T1R1/T1R3 receptor; [3],0.01 mM
"Nc1nc2c(ncn2[C@@H]2O[C@H](COP(=O)(O)OP(=O)(O)O)[C@@H](O)[C@H]2O)c(=O)[nH]1 [Guanosine 5′-diphosphate sodium salt, Guanosine 5′-diphosphate]",Thres,cat T1R1/T1R3 receptor,0.050 mM
"Nc1nc2c(ncn2[C@H]2C[C@H](OP(=O)(O)O)[C@@H](COP(=O)(O)O)O2)c(=O)[nH]1 [2′-Deoxyguanosine-3′,5′-O-bisphosphate]",Activity,cat T1R1/T1R3 receptor,active
same,Max resp ΔF/F,cat T1R1/T1R3 receptor,1.8925 ΔF/F
same,Max resp. (ΔF/F),cat T1R1/T1R3 receptor,1.8925 ΔF/F
same,Thres,cat T1R1/T1R3 receptor,0.005 mM
same,Threshold,cat T1R1/T1R3 receptor,0.005 mM
same,Max resp % of IMP,cat T1R1/T1R3 receptor,152.3 % of IMP
same,Max. resp. % of IMP,cat T1R1/T1R3 receptor,152.3 % of IMP
same,EC50,cat T1R1/T1R3 receptor; [3],0.02 mM
same,function as activators of T1R1/T1R3,cat T1R1/T1R3 receptor,activators of T1R1/T1R3
CNc1ccccc1C(=O)O[C@H]1C[C@H](n2cnc3c(=O)[nH]c(N)nc32)O[C@@H]1COP(=O)(O)O [2′-Deoxy-3′-O-(N′-methylanthraniloyl) guanosine-5′-O-monophosphate],Activity,cat T1R1/T1R3 receptor,active
same,Thres,cat T1R1/T1R3 receptor,0.0025 mM
same,Max resp % of IMP,cat T1R1/T1R3 receptor,23.7 % of IMP
same,Max. resp. % of IMP,cat T1R1/T1R3 receptor,23.7 % of IMP
same,function as activators of T1R1/T1R3,cat T1R1/T1R3 receptor,activators of T1R1/T1R3
O=P(O)(O)OC[C@H]1O[C@@H](n2cnc3c(Cl)ncnc32)C(O)C1O (some centres unmarked) [6-Chloropurineriboside-5′-O-monophosphate],Thres,cat T1R1/T1R3 receptor,0.0005 mM
